Results from article PMC12051620, “Molecular basis underlying the specificity of an antagonist AA92593 for mammalian melanopsins” (The Journal of Biological Chemistry, 2025).

Tests used:
human melanopsin [1] = target: T1, human melanopsin (Homo sapiens, UniProt Q9UHM6); assay: GsX GloSensor assay with exogenous Gsα WT; type: cell-based; design: the C-terminal amino acid residues (94, 140, 200, 214, 296, and 308 residues); expressed in transfected cells; host or cells: COS-1; settings: 16.7 μM AA92593; COS-1 cells
T1 sequence (Q9UHM6 1-384 limits assumed): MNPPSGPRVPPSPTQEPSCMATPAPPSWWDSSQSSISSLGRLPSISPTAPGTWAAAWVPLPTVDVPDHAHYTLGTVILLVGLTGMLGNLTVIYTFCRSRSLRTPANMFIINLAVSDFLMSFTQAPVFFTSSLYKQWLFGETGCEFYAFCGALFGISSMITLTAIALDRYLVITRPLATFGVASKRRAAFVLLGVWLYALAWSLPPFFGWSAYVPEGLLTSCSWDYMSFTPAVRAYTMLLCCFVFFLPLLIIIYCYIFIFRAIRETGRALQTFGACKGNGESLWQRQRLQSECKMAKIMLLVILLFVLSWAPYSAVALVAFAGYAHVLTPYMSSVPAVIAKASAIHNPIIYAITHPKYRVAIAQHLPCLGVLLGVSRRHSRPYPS
Source text: (§1) Previous studies of human and mouse melanopsins reported that these melanopsins can activate not only Gq but Gs and Gi ([20], [21], [22]). Thus, we assessed the effect of AA92593 on Gsα WT or Gsα/i11 (with 11 C-terminal sequence of Giα) using the GsX GloSensor assay. In agreement with the promiscuous G protein-coupling of melanopsins, we observed light-dependent increase of GloSensor luminescence in COS-1 cells expressing Gsα or Gsα/i11 with human/mouse melanopsins (Fig. 1, G–J).
(§2) For GloSensor assay, opsins, GloSensor assay sensor (coded by pGlo-22F), and NanoBiT-tagged G proteins were transiently expressed in COS-1 cells (kindly provided from Dr David Farrens, Oregon Health and Science University) using PEI as described previously ([24], [52]). […] For GFP-fluorescence microscopy, a 35-mm cell culture dish (IWAKI) was transfected with 2 μg melanopsin-GFP plasmid and 8 μg PEI in 400 μl Opti-mem and 1.2 ml D-MEM. […]
(§3) The transfected COS-1 cells were incubated at 37 °C, 5% CO2 for 2 days, and the medium was aspirated and exchanged with 50 μl of HBSS (145 mM NaCl, 10 mM D-glucose, 5 mM KCl, 1 mM MgCl2, 1.7 mM CaCl2, 1.5 mM NaHCO3, 10 mM Hepes, pH 7.4), containing 33.3, 20, 10, 2, 0.2, 0.02, 0.002, or 0 μM AA92593, 0.5% dimetyl sulfoxide (DMSO), and 4% (vol/vol) GloSensor cAMP reagent stock solution. […] Luminescence was measured using GM-2000 or GM-3510 microplate reader (Promega). […]

human melanopsin [2] = target: T1, human melanopsin; assay: GsX GloSensor assay with Gsα/i11; type: cell-based; design: the C-terminal amino acid residues (94, 140, 200, 214, 296, and 308 residues); expressed in transfected cells; host or cells: COS-1; settings: 16.7 μM AA92593; COS-1 cells
Source text: as §1, §2, §3

`COc1ccc(S(=O)(=O)N2CCCCC2)cc1C` [AA92593] was tested, and the “effect on melanopsin-induced cAMP responses via exogenous Gsα” value (human melanopsin [1]) was “can suppress” and the “effect on melanopsin-induced cAMP responses via Gsα/i11” value (human melanopsin [2]) was “can suppress”.
